Experimental data: ChEMBL document CHEMBL3751750, “2-Amino-4-bis(aryloxybenzyl)aminobutanoic acids: A novel scaffold for inhibition of ASCT2-mediated glutamine transport” (Bioorg Med Chem Lett, 2016)

How the values were obtained:
[1] = biological target: T1, Amino acid transporter (Rattus norvegicus, UniProt Q9Z1J7); experiment: Inhibition of ASCT2-mediated glutamine transport in rat C6 cells using [3H]-glutamine after 15 mins by scintillation counting; type: cell-based
T1 sequence (Q9Z1J7 whole entry): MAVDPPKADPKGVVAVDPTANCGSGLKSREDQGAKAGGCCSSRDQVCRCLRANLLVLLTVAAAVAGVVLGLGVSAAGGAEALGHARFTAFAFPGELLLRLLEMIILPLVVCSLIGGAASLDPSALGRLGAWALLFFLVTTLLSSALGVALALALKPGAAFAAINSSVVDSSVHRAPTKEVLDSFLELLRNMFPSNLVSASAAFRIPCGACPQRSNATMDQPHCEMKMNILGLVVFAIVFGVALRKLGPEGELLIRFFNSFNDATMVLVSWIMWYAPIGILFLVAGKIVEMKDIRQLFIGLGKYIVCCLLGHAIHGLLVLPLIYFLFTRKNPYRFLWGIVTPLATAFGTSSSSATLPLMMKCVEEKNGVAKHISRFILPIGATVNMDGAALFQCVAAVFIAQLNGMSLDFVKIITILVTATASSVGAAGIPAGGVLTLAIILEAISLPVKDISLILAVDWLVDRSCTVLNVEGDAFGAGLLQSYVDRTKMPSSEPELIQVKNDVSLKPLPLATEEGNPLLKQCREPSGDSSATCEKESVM

[2] = biological target: T2, Neutral amino acid transporter B(0) (Homo sapiens, UniProt Q15758); experiment: Inhibition of ASCT2-mediated glutamine transport in human HEK293 cells using [3H]-glutamine after 15 mins by scintillation counting; type: cell-based
T2 sequence (Q15758 whole entry): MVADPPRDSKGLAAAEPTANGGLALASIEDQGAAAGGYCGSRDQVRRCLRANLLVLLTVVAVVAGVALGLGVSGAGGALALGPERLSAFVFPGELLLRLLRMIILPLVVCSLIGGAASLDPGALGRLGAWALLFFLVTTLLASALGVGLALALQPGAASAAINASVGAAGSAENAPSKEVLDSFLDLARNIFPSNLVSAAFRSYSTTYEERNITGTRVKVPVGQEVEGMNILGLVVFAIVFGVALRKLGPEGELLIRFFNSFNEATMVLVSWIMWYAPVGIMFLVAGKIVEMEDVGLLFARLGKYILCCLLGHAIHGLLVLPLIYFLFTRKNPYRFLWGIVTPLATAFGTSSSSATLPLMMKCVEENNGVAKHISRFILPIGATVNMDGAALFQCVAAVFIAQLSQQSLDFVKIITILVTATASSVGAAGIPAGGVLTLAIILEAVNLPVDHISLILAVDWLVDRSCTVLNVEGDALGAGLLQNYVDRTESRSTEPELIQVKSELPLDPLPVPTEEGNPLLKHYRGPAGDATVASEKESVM

[3] = biological target: T2, Neutral amino acid transporter B(0); experiment: Inhibition of ASCT2 (unknown origin)-mediated glutamine transport

Row | SMILES | IC50 [1] | IC50 [2] | IC50 [3]
1 | N[C@@H](CCN(Cc1ccccc1OCc1ccc(Cl)cc1)Cc1ccccc1OCc1ccc(Cl)cc1)C(=O)O | 20.1 µM | 33.7 µM | 
2 | N[C@@H](CCN(Cc1ccccc1OCc1cccnc1)Cc1ccccc1OCc1cccnc1)C(=O)O | 17.3 µM | 69.1 µM | 
3 | N[C@@H](CCN(Cc1ccccc1OCc1ccc(F)cc1)Cc1ccccc1OCc1ccc(F)cc1)C(=O)O | 11.2 µM |  | 
4 | COc1ccc(Oc2ccccc2CN(CC[C@H](N)C(=O)O)Cc2ccccc2Oc2ccc(OC)cc2)cc1 | 8.7 µM | 11.9 µM | 
5 | N[C@@H](CCN(Cc1ccccc1Oc1ccc(Cl)cc1)Cc1ccccc1Oc1ccc(Cl)cc1)C(=O)O |  | 26 µM | 
6 | N[C@@H](CCN(Cc1ccccc1Oc1cccc(F)c1)Cc1ccccc1Oc1cccc(F)c1)C(=O)O | 36.3 µM |  | 
7 | N#Cc1cc(Br)ccc1/N=c1\ssnc1Cl |  |  | 3.7 µM
8 | N[C@@H](CCN(Cc1ccccc1OCc1ccccc1Cl)Cc1ccccc1OCc1ccccc1Cl)C(=O)O | 18.4 µM | 40.1 µM | 
9 | COc1cccc(COc2ccccc2CN(CC[C@H](N)C(=O)O)Cc2ccccc2OCc2cccc(OC)c2)c1 | 5.1 µM | 7.2 µM | 
10 | N[C@@H](CCN(Cc1ccccc1Oc1ccccc1F)Cc1ccccc1Oc1ccccc1F)C(=O)O | 1.8 µM | 33.8 µM | 
11 | N[C@@H](CCN(Cc1ccccc1OCc1ccccn1)Cc1ccccc1OCc1ccccn1)C(=O)O | 8.4 µM | 48.3 µM | 
12 | Cc1ccc(COc2ccccc2CN(CC[C@H](N)C(=O)O)Cc2ccccc2OCc2ccc(C)cc2)cc1 | 86.4 µM | 17.5 µM | 
13 | N[C@@H](CCN(Cc1ccccc1Oc1ccccn1)Cc1ccccc1Oc1ccccn1)C(=O)O | 68.2 µM | 59.6 µM | 
14 | N[C@@H](COC(=O)c1ccc(-c2ccccc2)cc1)C(=O)O |  |  | 30 µM
15 | N[C@@H](CCN(Cc1ccccc1OCc1ccccc1F)Cc1ccccc1OCc1ccccc1F)C(=O)O | 3.3 µM |  | 
16 | COc1cccc(Oc2ccccc2CN(CC[C@H](N)C(=O)O)Cc2ccccc2Oc2cccc(OC)c2)c1 | 1.3 µM | 57.2 µM | 
17 | N[C@@H](CCN(Cc1ccccc1OCc1cccc(Cl)c1)Cc1ccccc1OCc1cccc(Cl)c1)C(=O)O | 12.7 µM | 50.8 µM | 
18 | Cc1ccccc1COc1ccccc1CN(CC[C@H](N)C(=O)O)Cc1ccccc1OCc1ccccc1C | 41.7 µM | 25.6 µM | 
19 | N[C@@H](CCC(=O)Nc1ccc([N+](=O)[O-])cc1)C(=O)O |  | 1200 µM | 1000 µM
20 | N[C@@H](CCN(Cc1ccccc1Oc1ccc(F)cc1)Cc1ccccc1Oc1ccc(F)cc1)C(=O)O | 10.5 µM | 142 µM | 
